{"source": "patent EP2385818B1", "about": "“DIOLS AS ANTIPERSPIRANT AGENTS” (Beiersdorf Aktiengesellschaft, priority 2009, dated 2010)", "test_system": "schweißabgebenden Schweißdrüsen im Testareal", "assay": "Sweat reduction on the forearm of volunteers, sweating induced at 75 °C, silicone imprint count of active sweat glands versus untreated area (following Keskin et al.)", "format": "in vivo, Probanden", "conditions": "for antitranspirant bzw. schweißhemmende Wirkung (Restschweißmenge im Vergleich zum unbehandelten Areal): forearm, after product application, result in words only; for AT-Wirkung, onset: measurable after the first application, no build-up by repeated application", "description": "Die überraschende Antitranspirantwirksamkeit wurde in Studien zum AT-Wirkmechanismus der aromatischen Diole in wässrigen Systemen, unterschiedlichen Ölen und O/W-Emulsion untersucht (siehe Abbildung 1). In den Abbildungen ist die Restschweißmenge im Vergleich zum unbehandelten Areal nach Produktapplikation dargestellt. 100% Restschweißmenge entsprechen 0% Schweißreduktion. Die Schweißreduktion wurde in Anlehnung an M. Keskin et al. J. Invest. Dermatol. 1998; 110:591 gemessen. Bei den Messungen werden die Testsubstanzen auf dem Unterarm der Probanden angewendet. Die Probanden werden bei 75 °C zum Schwitzen angeregt; nach Beginn der Schweißproduktion wird mittels Silikonabdrucktechnik die Anzahl der schweißabgebenden Schweißdrüsen im Testareal ermittelt und gegen ein unbehandeltes Vergleichsareal abgeglichen.", "data": [{"molecule": "OCCC(O)c1ccccc1", "note": "(centres unmarked) [Phenyl-1,3-Propylenglykol]", "values": [{"measurement": "antitranspirant bzw. schweißhemmende Wirkung (Restschweißmenge im Vergleich zum unbehandelten Areal)", "value": "schweißhemmende Wirkung"}]}, {"molecule": "CC(O)CC(C)O", "note": "(centres unmarked) [2,4-Pentylenglykol]", "values": [{"measurement": "antitranspirant bzw. schweißhemmende Wirkung (Restschweißmenge im Vergleich zum unbehandelten Areal)", "value": "antitranspirant bzw. schweißhemmende Wirkung"}, {"measurement": "AT-Wirkung, onset", "value": "unmittelbare AT-Wirkung (Sofort-Effekt)"}]}, {"molecule": "CC(O)C(O)c1ccccc1", "note": "(centres unmarked)", "values": [{"measurement": "antitranspirant bzw. schweißhemmende Wirkung (Restschweißmenge im Vergleich zum unbehandelten Areal)", "value": "schweißhemmende Wirkung"}]}, {"molecule": "CC(O)CCC(C)O", "note": "(centres unmarked) [2,5 Hexandiol, 2,5-Hexandiol]", "values": [{"measurement": "antitranspirant bzw. schweißhemmende Wirkung (Restschweißmenge im Vergleich zum unbehandelten Areal)", "value": "antitranspirant bzw. schweißhemmende Wirkung"}, {"measurement": "AT-Wirkung, onset", "value": "unmittelbare AT-Wirkung (Sofort-Effekt)"}]}, {"molecule": "CC(O)CCO", "note": "(centres unmarked) [1,3-Butylenglykol]", "values": [{"measurement": "antitranspirant bzw. schweißhemmende Wirkung (Restschweißmenge im Vergleich zum unbehandelten Areal)", "value": "antitranspirant bzw. schweißhemmende Wirkung"}, {"measurement": "AT-Wirkung, onset", "value": "unmittelbare AT-Wirkung (Sofort-Effekt)"}]}, {"molecule": "OCCCO", "note": "[1,3-Propylenglykol]", "values": [{"measurement": "antitranspirant bzw. schweißhemmende Wirkung (Restschweißmenge im Vergleich zum unbehandelten Areal)", "value": "antitranspirant bzw. schweißhemmende Wirkung"}, {"measurement": "AT-Wirkung, onset", "value": "unmittelbare AT-Wirkung (Sofort-Effekt)"}, {"measurement": "AT-Leistung", "setting": "preparation with up to 50 % Gew. in water, compared with preparation with 10 Gew.% Aluminiumchlorohydrat (Abbildung 1)", "value": "gute AT-Leistung"}]}]}
